According to patent US10689354B2, “Aminoazole derivative” (Teijin Pharma Limited, priority 2015, dated 2020):

molecular target: T1, androgen receptor (AR-LBD) (Rattus norvegicus, UniProt P15207); assay: Evaluation of androgen receptor affinity (PolarScreen Androgen Receptor Competitor Assay Kit, Red; fluorescence polarization); conditions: 22° C. for 5 hours, relative to binding rate of 1 μM DHT, read-out: AR affinity (pEC50) (converted)
T1 construct: 5 μL of 2×AR-LBD/Fluoromone AL Red Complex contained in the kit; purchased Invitrogen
T1 sequence (P15207 651-882 limits assumed): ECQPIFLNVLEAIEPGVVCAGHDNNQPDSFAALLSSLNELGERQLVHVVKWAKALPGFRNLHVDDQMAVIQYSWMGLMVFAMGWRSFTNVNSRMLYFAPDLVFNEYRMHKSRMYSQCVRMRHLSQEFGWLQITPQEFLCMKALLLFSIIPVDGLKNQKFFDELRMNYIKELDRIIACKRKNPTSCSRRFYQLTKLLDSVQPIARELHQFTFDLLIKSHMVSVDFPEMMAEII
Experimental: Evaluation of an Androgen Receptor Affinity
To examine the interaction of a compound with an androgen receptor, evaluation was carried out in accordance with the following procedure using PolarScreen™ Androgen Receptor Competitor Assay Kit, Red (Invitrogen). To 2 wells each of a 384 well black plate was added 5 μL of the compound solution. To each well was added 5 μL of 2×AR-LBD/Fluoromone AL Red Complex contained in the kit and the samples were reacted at 22° C. for 5 hours. After 5 hours of the reaction, fluorescence polarization was measured and the affinity was evaluated. The affinity of the compound was determined by comparing to the binding rate of 1 μM of dihydrotestosterone (DHT), and quantified the logarithm value (pEC50) of reciprocal value of the effective concentration of the compound which is equal to 50% of the binding rate by applying a 4 parameter goodness-of-fit calculation.

Row | EC50 [nM] | Structure (SMILES)
1 | > 2000 | Cc1sc(N(CC(=O)N2CCCCC2)c2ccc(C#N)cc2)nc1C(=O)NS(C)(=O)=O [Compound 72, 2-(4-cyano-N-[2-oxo-2-(1-piperidyl)ethyl]anilino)-5-methyl-N-methylsulfonyl-thiazole-4-carboxamide]
2 | 631 | Cc1ncc(CN(c2ccc(C#N)cc2)c2nc(C(=O)NS(C)(=O)=O)c(C)s2)s1 [Compound 435, 2-[4-cyano-N-[(2-methylthiazol-5-yl)methyl]anilino]-5-methyl-N-methylsulfonyl-thiazole-4-carboxamide]
3 | 158 | Cc1ccccc1CN(c1ccc(C#N)cc1)c1nc(C(=O)NS(C)(=O)=O)c(Br)s1 [Example 264, 5-bromo-2-[4-cyano-N-(o-tolylmethyl)anilino]-N-methylsulfonyl-thiazole-4-carboxamide]
4 | > 2000 | Cc1sc(N(Cc2ccncc2)c2ccc(C#N)cc2)nc1C(=O)NS(C)(=O)=O [Compound 44, 2-[4-cyano-N-(4-pyridylmethyl)anilino]-5-methyl-N-methylsulfonyl-thiazole-4-carboxamide]
5 | 251 | Cc1sc(N(CCc2cccc3ccccc23)c2ccc(C#N)cc2)nc1C(=O)NS(C)(=O)=O [Compound 441, 2-[4-cyano-N-[2-(1-naphthyl)ethyl]anilino]-5-methyl-N-methylsulfonyl-thiazole-4-carboxamide]
6 | > 2000 | Cc1sc(N(CC(=O)C(C)(C)C)c2ccc(C#N)cc2)nc1C(=O)NS(C)(=O)=O [Compound 63, 2-(4-cyano-N-(3,3-dimethyl-2-oxo-butyl)anilino)-5-methyl-N-methylsulfonyl-thiazole-4-carboxamide]
7 | 1000 | Cc1sc(N(Cc2ccccc2)c2ccc(F)cc2)nc1C(=O)NS(C)(=O)=O [Compound 28, 2-(N-benzyl-4-fluoro-anilino)-5-methyl-N-methylsulfonyl-thiazole-4-carboxamide]
8 | > 2000 | Cc1sc(N(CC(=O)c2ccccc2)c2ccc(C#N)cc2)nc1C(=O)NS(C)(=O)=O [Compound 434, 2-(4-cyano-N-phenacyl-anilino)-5-methyl-N-methylsulfonyl-thiazole-4-carboxamide]
9 | > 2000 | Cc1sc(N(C)c2ccc(C#N)cc2)nc1C(=O)NS(C)(=O)=O [Compound 60, 2-(4-cyano-N-methyl-anilino)-5-methyl-N-methylsulfonyl-thiazole-4-carboxamide]
10 | 1000 | Cc1sc(N(Cc2cccc3cnccc23)c2ccc(C#N)cc2)nc1C(=O)NS(C)(=O)=O [Compound 402, 2-[4-cyano-N-(5-isoquinolylmethyl)anilino]-5-methyl-N-methylsulfonyl-thiazole-4-carboxamide]
11 | > 2000 | Cc1sc(N(Cc2ccccc2)c2cccc(O)c2)nc1C(=O)NS(C)(=O)=O [Example 205, 2-(N-benzyl-3-hydroxy-anilino)-5-methyl-N-methylsulfonyl-thiazole-4-carboxamide]
12 | > 2000 | Cc1sc(N(CC(=O)NC2CC2)c2ccc(C#N)cc2)nc1C(=O)NS(C)(=O)=O [Compound 412, 2-(4-cyano-N-[2-(cyclopropylamino)-2-oxo-ethyl]anilino)-5-methyl-N-methylsulfonyl-thiazole-4-carboxamide]
13 | > 2000 | Cc1sc(N(CCCC#N)c2ccc(C#N)cc2)nc1C(=O)NS(C)(=O)=O [Compound 360, 2-[4-cyano-N-(3-cyanopropyl)anilino]-5-methyl-N-methylsulfonyl-thiazole-4-carboxamide]
14 | 158 | Cc1sc(N(Cc2cccc3nonc23)c2ccc(C#N)cc2)nc1C(=O)NS(C)(=O)=O [Compound 92, 2-[N-(2,1,3-benzoxadiazol-4-ylmethyl)-4-cyano-anilino]-5-methyl-N-methylsulfonyl-thiazole-4-carboxamide]

More lines, now with the values behind:

Row | Structure (SMILES) | EC50 [nM]
15 | Cc1noc(C)c1CN(CCc1ccc(Cl)cc1)c1nc(C(=O)NS(C)(=O)=O)c(C)s1 [Compound 151, 2-[2-(4-chlorophenyl)ethyl-[(3,5-dimethylisoxazol-4-yl)methyl]amino]-5-methyl-N-methylsulfonyl-thiazole-4-carboxamide] | > 2000
16 | Cc1sc(N(Cc2ccccc2)CC2(c3ccccc3)CC2)nc1C(=O)NS(C)(=O)=O [Example 304, 2-[benzyl-[(1-phenylcyclopropyl)methyl]amino]-5-methyl-N-methylsulfonyl-thiazole-4-carboxamide] | > 2000
17 | COc1ccccc1N(Cc1ccccc1)c1nc(C(=O)NS(C)(=O)=O)c(C)s1 [Compound 47, 2-(N-benzyl-2-methoxy-anilino)-5-methyl-N-methylsulfonyl-thiazole-4-carboxamide] | > 2000
18 | Cc1sc(N(C[C@H]2CCC[C@@H](CO)C2)c2ccc(C(F)(F)F)cc2)nc1C(=O)NS(C)(=O)=O (racemic) [Compound 348, 2-[N-[[cis-3-(hydroxymethyl)cyclohexyl]methyl]-4-(trifluoromethyl)anilino]-5-methyl-N-methylsulfonyl-thiazole-4-carboxamide] | 1260
19 | COC(=O)c1ccc(N(Cc2ccccc2)c2nc(C(=O)NS(C)(=O)=O)c(C)s2)nn1 [Example 239, methyl 6-[benzyl-[5-methyl-4-(methylsulfonylcarbamoyl)thiazol-2-yl]amino]pyridazine-3-carboxylate] | > 2000
20 | Cc1ccc(S(=O)(=O)n2cc(CCN(Cc3ccccc3)c3nc(C(=O)NS(C)(=O)=O)c(C)s3)c3ccccc32)cc1 [Example 318, 2-[benzyl-[2-[1-(p-tolylsulfonyl)indol-3-yl]ethyl]amino]-5-methyl-N-methylsulfonyl-thiazole-4-carboxamide] | > 2000
21 | Cc1sc(N(Cc2ccccc2)c2ccc(CCOCc3ccccc3)cc2)nc1C(=O)NS(C)(=O)=O [Example 235, 2-[N-benzyl-4-(2-benzyloxyethyl)anilino]-5-methyl-N-methylsulfonyl-thiazole-4-carboxamide] | > 2000
22 | Cc1sc(N(CCc2ccc(S(C)(=O)=O)cc2)Cc2ccccc2)nc1C(=O)NS(C)(=O)=O [Example 317, 2-[benzyl-[2-(4-methylsulfonylphenyl)ethyl]amino]-5-methyl-N-methylsulfonyl-thiazole-4-carboxamide] | 501
23 | Cc1sc(N(CCC2CC2)Cc2ccccc2)nc1C(=O)NS(C)(=O)=O [Compound 687, 2-[benzyl(2-cyclopropylethyl)amino]-5-methyl-N-methylsulfonyl-thiazole-4-carboxamide] | > 2000
24 | Cc1sc(N(C[C@H]2CCC[C@@H](CO)C2)c2ccc(C#N)cc2)nc1C(=O)NS(C)(=O)=O (racemic) [Compound 347, 2-[4-cyano-N-[[cis-3-(hydroxymethyl)cyclohexyl]methyl]anilino]-5-methyl-N-methylsulfonyl-thiazole-4-carboxamide] | 1260
25 | Cc1sc(N(CCc2c(Cl)cccc2Cl)Cc2ccccc2)nc1C(=O)NS(C)(=O)=O [Example 316, 2-[benzyl-[2-(2,6-dichlorophenyl)ethyl]amino]-5-methyl-N-methylsulfonyl-thiazole-4-carboxamide] | > 2000
26 | Cc1sc(N(CC(=O)N(C)C2CCCCC2)c2ccc(C#N)cc2)nc1C(=O)NS(C)(=O)=O [Compound 424, 2-(4-cyano-N-[2-[cyclohexyl(methyl)amino]-2-oxo-ethyl]anilino)-5-methyl-N-methylsulfonyl-thiazole-4-carboxamide] | > 2000
27 | Cc1sc(N(CCc2ccncc2)Cc2ccccc2)nc1C(=O)NS(C)(=O)=O [Compound 743, 2-[benzyl-[2-(4-pyridyl)ethyl]amino]-5-methyl-N-methylsulfonyl-thiazole-4-carboxamide] | 631
28 | Cc1sc(N(Cc2ccccc2)Cc2cccnc2)nc1C(=O)NS(C)(=O)=O [Example 293, 2-[benzyl(3-pyridylmethyl)amino]-5-methyl-N-methylsulfonyl-thiazole-4-carboxamide] | > 2000
29 | Cc1oc(N(Cc2ccc(C#N)cc2)c2ccc(C#N)cc2)nc1C(=O)NS(C)(=O)=O [Compound 615, 2-[4-cyano-N-[(4-cyanophenyl)methyl]anilino]-5-methyl-N-methylsulfonyl-oxazole-4-carboxamide] | 398
30 | Cc1sc(N(CCn2nccc2C)Cc2ccccc2)nc1C(=O)NS(C)(=O)=O [Compound 682, 2-[benzyl-[2-(5-methylpyrazol-1-yl)ethyl]amino]-5-methyl-N-methylsulfonyl-thiazole-4-carboxamide] | > 2000
31 | Cc1sc(N(CC[C@@H]2CC[C@@H](F)C2)c2ccc(C#N)cc2)nc1C(=O)NS(C)(=O)=O (racemic) [Compound 453, 2-[4-cyano-N-[2-[trans-3-fluorocyclopentyl]ethyl]anilino]-5-methyl-N-methylsulfonyl-thiazole-4-carboxamide] | 251
32 | Cc1sc(N(CCCc2ccccc2)Cc2ccccc2)nc1C(=O)NS(C)(=O)=O [Example 297, 2-[benzyl(3-phenylpropyl)amino]-5-methyl-N-methylsulfonyl-thiazole-4-carboxamide] | 501
33 | Cc1sc(N(Cc2ccccc2)c2ccccc2C(F)(F)F)nc1C(=O)NS(C)(=O)=O [Example 228, 2-[N-benzyl-2-(trifluoromethyl)anilino]-5-methyl-N-methylsulfonyl-thiazole-4-carboxamide] | > 2000
